Data from patent US20220364989A1, “METHOD FOR MEASURING PHOTOTOXICITY OR PHOTOALLERGY AND REAGENT FOR USE THEREIN” (FUJIFILM Corporation, priority 2018, published 2022).
Like-named read-outs stand apart in the source and are kept apart here.

Key:
[1] = cited from earlier work
[2] = Average score of NAC and NAL depletion and phototoxicity or photoallergy determination, UV detection; conditions: for Average score (%): under light irradiation, single compound; for Average score (%) under light irradiation / Average score (%) without light irradiation: average of NAC and NAL depletion
[3] = Average score of NAC and NAL depletion and phototoxicity or photoallergy determination, fluorescence detection; conditions: single compound
[4] = cited from earlier work; remark: listed apart in the source
[5] = NAL depletion under and without ultraviolet irradiation, HPLC with UV detection (281 nm); conditions: for NAL Depletion (%) without light irradiation: 25° C. 24 hours light-shielded; for NAL Depletion (%) without light irradiation / NAL Depletion (%) under light irradiation: test substance solution 1 mmol/L; for NAL Depletion (%) under light irradiation: 2,000 μW/cm^2 for 1 hour then 25° C. 23 hours
[6] = NAL depletion under and without ultraviolet irradiation, HPLC with fluorescence detection (284 nm excitation, 333 nm fluorescence); conditions: single compound; for NAL Depletion (%): without light irradiation
[7] = NAC depletion under and without ultraviolet irradiation, HPLC with UV detection (281 nm); conditions: for NAC Depletion (%) without light irradiation: 25° C. 24 hours light-shielded; for NAC Depletion (%) without light irradiation / NAC Depletion (%) under light irradiation: test substance solution 1 mmol/L; for NAC Depletion (%) under light irradiation: 2,000 μW/cm^2 for 1 hour then 25° C. 23 hours
[8] = NAC depletion under and without ultraviolet irradiation, HPLC with fluorescence detection (284 nm excitation, 333 nm fluorescence); conditions: single compound; for NAC Depletion (%): without light irradiation

Compound	Difference in depletion (under light irradiation - without light irradiation) NAL (%) [5] [%]	NAL Depletion (%) without light irradiation [5] [%]	NAL Depletion (%) under light irradiation [5] [%]	Difference in depletion (under light irradiation - without light irradiation) NAL (%) [6] [%]	NAL Depletion (%) [6] [%]	Difference in depletion (under light irradiation - without light irradiation) NAC (%) [7] [%]	NAC Depletion (%) without light irradiation [7] [%]	NAC Depletion (%) under light irradiation [7] [%]	In vivo phototoxicity ([1]; reported in References 1 to 3)	Difference in depletion (under light irradiation - without light irradiation) Average score (%) [2] [%]	Average score (%) under light irradiation [2] [%]	Average score (%) without light irradiation [2] [%]	Difference in depletion (under light irradiation - without light irradiation) Average score (%) [3] [%]	Average score (%) ([3]; without light irradiation)	Difference in depletion (under light irradiation - without light irradiation) NAC (%) [8] [%]	NAC Depletion (%) [8] [%]	In vivo photoallergy ([4]; reported in References 1 and 2)	other results
CC(O)CO (racemic) [No. 54, Propylene glycol]																		In vivo phototoxicity ([1]; in vivo): Negative; Average score (%) [2]: 0.1%; Average score (%) ([3]; under light irradiation): 0.3%; In vivo photoallergy ([4]; in vivo): Negative
C[S+](C)[O-] [No. 58, Dimethyl sulfoxide]																		In vivo phototoxicity ([1]; in vivo): Negative; Average score (%) [2]: 0.4%; In vivo photoallergy ([4]; in vivo): Negative
CC(C)O [compound 47]	−1.2	1.5	0.3	0.3	0.0	1.7	0.0	1.7	Negative	0.2	1.0	0.8	−0.1	0.3	−0.5	0.5	Negative	
COc1c2ccoc2cc2oc(=O)ccc12 [compound 31]	8.2	0.2	8.4	6.0	0.2	89.6	1.1	90.6	Positive	48.9	49.5	0.6	48.9	0.1	91.9	0.0	Negative	
Tetrachlorosalicylanilide [compound 12]	77.9	4.2	82.1	81.5	5.0		66.8	−200.9	Positive			35.5	60.4	31.5	39.4	58.0	Positive	
CCO [compound 50]	−1.3	1.3	0.0	0.0	0.0	0.4	0.0	0.4	Negative	−0.5	0.2	0.6	−0.1	0.1	−0.3	0.3	Negative	
CC(C)OC(=O)C(C)(C)Oc1ccc(C(=O)c2ccc(Cl)cc2)cc1 [compound 38]	40.7	0.0	40.7	37.0	0.0		0.0	−1178.7	Positive			0.0	67.8	0.0	98.7	0.0		
Cc1ccc(C=C2C(=O)C3(C)CCC2C3(C)C)cc1 (racemic) [compound 39]	0.0	0.0	0.0	0.0	0.0	3.6	0.7	4.3	Negative	1.8	2.1	0.3	2.0	0.1	3.9	0.2	Negative	
[Na+].[O-][n+]1ccccc1[S-] [compound 26]		−34.1	21.9	13.3	0.0	89.3	10.7	100.0			61.0		52.4	4.2	91.6	8.4	Positive	
CC(O)CCO (stereo not shown) [compound 46]	0.0	0.0	0.0	−0.1	0.1	0.7	0.0	0.7		0.4	0.4	0.0	0.1	0.1	0.2	0.0		
